How the values were obtained:
AGS cells (K-Ras G12D) = experiment: 2D cell growth inhibition assay, AGS; format: cell-based; settings: Homo sapiens, 144 h, 6 days, absolute IC50
K-Ras G12V [1] = molecular target: T1, K-Ras G12V (Homo sapiens, UniProt P01116, G12V); experiment: SOS1 catalyzed nucleotide exchange assay (GDP form K-Ras), K-Ras G12V; settings: read-out: K-Ras G12V GDP Biochemical Activity (IC50)
SW620 cells (K-Ras G12V) = experiment: 2D cell growth inhibition assay, SW620; format: cell-based; settings: Homo sapiens, SW-620, 144 h, 6 days, absolute IC50
[2] = system: p-ERK in SW620 cells (K-Ras G12V); experiment: Phospho-ERK1/2(THR202/TYR204) HTRF assay, SW620; format: cell-based; settings: Homo sapiens, SW-620, 2 h, 2 hours incubation
[3] = system: AsPC-1 cells (K-Ras G12D); experiment: 2D cell growth inhibition assay, AsPC-1; format: cell-based; settings: Homo sapiens, ASPC1, 144 h, AsPC-1, K-Ras G12D, 6 days, absolute IC50
K-Ras G12V [4] = molecular target: T1, K-Ras G12V; experiment: biochemical
[5] = system: p-ERK in AGS cells (K-Ras G12D); experiment: Phospho-ERK1/2(THR202/TYR204) HTRF assay, AGS; format: cell-based; settings: Homo sapiens, 2 h, 2 hours incubation

T1 sequence (P01116 1-169 isoform P01116-2 G12V): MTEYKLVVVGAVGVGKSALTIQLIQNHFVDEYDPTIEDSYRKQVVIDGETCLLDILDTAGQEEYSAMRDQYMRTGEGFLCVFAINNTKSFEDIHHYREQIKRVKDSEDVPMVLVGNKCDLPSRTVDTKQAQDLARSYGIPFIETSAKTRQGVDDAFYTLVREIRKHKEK

| SMILES | IC50 (AGS cells (K-Ras G12D)) [nM] | IC50 (K-Ras G12V [1]) [nM] | IC50 (SW620 cells (K-Ras G12V)) [nM] | IC50 [2] [nM] | IC50 [3] [nM] | IC50 (K-Ras G12V [4]) [nM] | IC50 [5] [nM] |
| --- | --- | --- | --- | --- | --- | --- | --- |
| C#Cc1c(F)ccc2cc(O)cc(-c3ncc4c(N5CCCO[C@H]6C[C@H]65)nc(OC[C@@]56CCCN5C[C@H](F)C6)nc4c3F)c12 (single isomer, unassigned) [Compound 7A] | 175 | – | 846 | – | 1510 | – | – |
| C#Cc1c(F)ccc2cc(O)cc(-c3ncc4c(N5CCCO[C@@H]6C[C@@H]65)nc(OCC5(CN6CCOCC6)CC5)nc4c3F)c12 (single isomer, unassigned) [Compound 28B] | 2.23 | 2.31 | 6.63 | 3.36 | 18.2 | 29.2 | 1.33 |
| C#Cc1c(F)ccc2cc(O)cc(-c3ncc4c(N5CCCOCC5)nc(OC[C@H]5CCCN5C)nc4c3F)c12 [Compound 2, (R)-5-ethynyl-6-fluoro-4-(8-fluoro-2-((1-methylpyrrolidin-2-yl)methoxy)-4-(1,4-oxazepan-4-yl)pyrido[4,3-d]pyrimidin-7-yl)naphthalen-2-ol] | 178 | 4.99 | 182 | – | 293 | 207 | – |
| C#Cc1c(F)ccc2cc(O)cc(-c3ncc4c(N5CCCOCC5)nc(OCC56CCCN5CC(F)(F)C6)nc4c3F)c12 (stereo not shown) [Compound 9, 4-(2-((2,2-difluorotetrahydro-1H-pyrrolizin-7a(5H)-yl)methoxy)-8-fluoro-4-(1,4-oxazepan-4-yl)pyrido[4,3-d]pyrimidin-7-yl)-5-ethynyl-6-fluoronaphthalen-2-ol] | 186 | – | 171 | 15.4 | 586 | – | 66.2 |
| C#Cc1c(F)c(F)cc2cc(O)cc(-c3ncc4c(N5CCCOCC5)nc(OC[C@@]56CCCN5C[C@H](F)C6)nc4c3F)c12 [Compound 29] | 8.22 | – | 4.62 | 7.74 | 53.6 | – | 3.3 |
| C#Cc1c(F)ccc2cc(O)cc(-c3ncc4c(N5CCOCCC56CC6)nc(OC[C@@]56CCCN5C[C@H](F)C6)nc4c3F)c12 [Compound 43, 5-ethynyl-6-fluoro-4-(8-fluoro-2-(((2R,7aS)-2-fluorotetrahydro-1H-pyrrolizin-7a(5H)-yl)methoxy)-4-(7-oxa-4-azaspiro[2.6]nonan-4-yl)pyrido[4,3-d]pyrimidin-7-yl)naphthalen-2-ol trifluoroacetic acid] | 248 | – | 76.3 | 21.8 | 1850 | – | 101 |
| C#Cc1c(F)ccc2cc(O)cc(-c3ncc4c(N5CCCOCC56CC6)nc(OC[C@@]56CCCN5C[C@H](F)C6)nc4c3F)c12 [Compound 50, 5-ethynyl-6-fluoro-4-(8-fluoro-2-(((2R,7aS)-2-fluorotetrahydro-1H-pyrrolizin-7a(5H)-yl)methoxy)-4-(8-oxa-4-azaspiro[2.6]nonan-4-yl)pyrido[4,3-d]pyrimidin-7-yl)naphthalen-2-ol trifluoroacetic acid] | – | – | – | 121 | – | – | – |
| C#Cc1cccc2cc(O)cc(-c3ncc4c(N5CCCOCC5)nc(OC[C@@]56CCCN5C[C@H](F)C6)nc4c3F)c12 [Compound 82] | 15.5 | – | 116 | 13.8 | 226 | – | 2.93 |
| C#Cc1c(F)ccc2cc(O)cc(-c3ncc4c(N5CCOCC6(CC6)C5)nc(OC[C@@]56CCCN5C[C@H](F)C6)nc4c3F)c12 [Compound 103, 5-ethynyl-6-fluoro-4-(8-fluoro-2-(((2R,7aS)-2-fluorotetrahydro-1H-pyrrolizin-7a(5H)-yl)methoxy)-4-(5-oxa-8-azaspiro[2.6]nonan-8-yl)pyrido[4,3-d]pyrimidin-7-yl) naphthalen-2-ol] | – | – | 109 | 187 | – | – | – |
| C#Cc1c(F)ccc2cc(O)cc(-c3ncc4c(N5CC(OC)COCC5C)nc(OC[C@@]56CCCN5C[C@H](F)C6)nc4c3F)c12 (stereo partly drawn) [Compound 106, 5-ethynyl-6-fluoro-4-(8-fluoro-2-(((2R,7aS)-2-fluorotetrahydro-1H-pyrrolizin-7a(5H)-yl)methoxy)-4-(6-methoxy-3-methyl-1,4-oxazepan-4-yl)pyrido[4,3-d]pyrimidin-7-yl)naphthalen-2-ol] | 98.1 | – | 66.4 | 21.5 | 681 | – | 39.4 |
| C#Cc1c(F)ccc2c(F)c(O)cc(-c3ncc4c(N5CCCOCC5)nc(OC[C@@]56CCCN5C[C@H](F)C6)nc4c3F)c12 [Compound 107, 5-ethynyl-1,6-difluoro-4-(8-fluoro-2-(((2R,7aS)-2-fluorotetrahydro-1H-pyrrolizin-7a(5H)-yl)methoxy)-4-(1,4-oxazepan-4-yl)pyrido[4,3-d]pyrimidin-7-yl)naphthalen-2-ol] | 504 | – | 185 | 40.2 | 885 | – | 66.1 |
| C#Cc1c(F)ccc2cc(O)cc(-c3ncc4c(N5[C@H]6COC[C@H](C)[C@@H]5C6)nc(OC[C@@]56CCCN5C[C@H](F)C6)nc4c3F)c12 [Compound 110, 5-ethynyl-6-fluoro-4-(8-fluoro-2-(((2R,7aS)-2-fluorotetrahydro-1H-pyrrolizin-7a(5H)-yl)methoxy)-4-((1R,5R,6S)-5-methyl-3-oxa-7-azabicyclo[4.1.1]octan-7-yl)pyrido [4,3-d]pyrimidin-7-yl)naphthalen-2-ol] | – | 6.63 | 81 | 62.2 | – | > 1000 | 44.3 |
| C#Cc1c(F)ccc2cccc(-c3ncc4c(N5CCCOC6CC65)nc(OC[C@@]56CCCN5C[C@H](F)C6)nc4c3F)c12 (stereo partly drawn) [Compound 115, 6-(7-(8-ethynyl-7-fluoronaphthalen-1-yl)-8-fluoro-2-(((2R,7aS)-2-fluorotetrahydro-1H-pyrrolizin-7a(5H)-yl)methoxy)pyrido [4,3-d]pyrimidin-4-yl)-2-oxa-6-azabicyclo [5.1.0]octane] | 133 | – | 163 | 27.9 | 237 | – | 46.5 |
| Oc1cc(-c2ncc3c(N4CCCOCC4)nc(OC[C@@]45CCCN4C[C@H](F)C5)nc3c2F)c2ccccc2c1 [Compound 118, 4-(8-fluoro-2-(((2R,7aS)-2-fluorotetrahydro-1H-pyrrolizin-7a(5H)-yl)methoxy)-4-(1,4-oxazepan-4-yl)pyrido[4,3-d]pyrimidin-7-yl)naphthalen-2-ol] | 184 | – | 343 | 110 | 1420 | – | 113 |

Further lines, results first:

| IC50 (AGS cells (K-Ras G12D)) [nM] | IC50 (K-Ras G12V [1]) [nM] | IC50 (SW620 cells (K-Ras G12V)) [nM] | IC50 [2] [nM] | IC50 [3] [nM] | IC50 (K-Ras G12V [4]) [nM] | IC50 [5] [nM] | SMILES |
| --- | --- | --- | --- | --- | --- | --- | --- |
| 18.6 | 1.47 | 39.5 | 19.4 | 133 | 35.7 | 2.31 | C#Cc1c(F)ccc2cc(O)cc(-c3ncc4c(N5CCCOCC5C)nc(OC[C@@]56CCCN5C[C@H](F)C6)nc4c3F)c12 (mixture of isomers) [Compound 16, 5-ethynyl-6-fluoro-4-(8-fluoro-2-(((2R,7aS)-2-fluorotetrahydro-1H-pyrrolizin-7a(5H)-yl)methoxy)-4-(3-methyl-1,4-oxazepan-4-yl)pyrido[4,3-d]pyrimidin-7-yl)naphthalen-2-ol trifluoroacetic acid] |
| 42.4 | – | 15.3 | 4.39 | 381 | – | 23.1 | C#Cc1c(F)ccc2cc(O)cc(-c3ncc4c(N5CCOCC(=C)C5)nc(OC[C@@]56CCCN5C[C@H](F)C6)nc4c3F)c12 [Compound 24, 5-ethynyl-6-fluoro-4-(8-fluoro-2-(((2R,7aS)-2-fluorotetrahydro-1H-pyrrolizin-7a(5H)-yl)methoxy)-4-(6-methylene-1,4-oxazepan-4-yl)pyrido[4,3-d]pyrimidin-7-yl)naphthalen-2-ol] |
| – | – | – | 3.97 | – | – | 2.04 | C#Cc1c(F)ccc2cc(O)cc(-c3ncc4c(N5CCOCC(=O)C5)nc(OC[C@@]56CCCN5C[C@H](F)C6)nc4c3F)c12 [Compound 30, 4-(7-(8-ethynyl-7-fluoro-3-hydroxynaphthalen-1-yl)-8-fluoro-2-(((2R,7aS)-2-fluorotetrahydro-1H-pyrrolizin-7a(5H)-yl)methoxy)pyrido[4,3-d]pyrimidin-4-yl)-1,4-oxazepan-6-one trifluoroacetic acid] |
| 3.41 | – | 27.2 | 5.98 | 32.8 | – | 1.5 | C#Cc1c(F)ccc2cc(O)cc(-c3ncc4c(N5CCOCC(COC)C5)nc(OC[C@@]56CCCN5C[C@H](F)C6)nc4c3F)c12 (stereo partly shown) [Compound 87] |
| – | – | – | 275 | – | – | – | C#Cc1c(F)ccc2cc(O)cc(-c3ncc4c(N5CC6COCC5C6)nc(OC[C@@]56CCCN5C[C@H](F)C6)nc4c3F)c12 (stereo partly drawn) [Compound 94, 4-(4-(3-oxa-6-azabicyclo[3.2.1]octan-6-yl)-8-fluoro-2-(((2R,7aS)-2-fluorotetrahydro-1H-pyrrolizin-7a(5H)-yl)methoxy)pyrido [4,3-d]pyrimidin-7-yl)-5-ethynyl-6-fluoro naphthalen-2-ol] |
| – | – | – | 47.1 | – | – | 192 | C#Cc1c(F)ccc2cc(O)cc(-c3ncc4c(N5CCOCC(C)(C)C5)nc(OC[C@@]56CCCN5C[C@H](F)C6)nc4c3F)c12 [Compound 102, 4-(4-(6,6-dimethyl-1,4-oxazepan-4-yl)-8-fluoro-2-(((2R,7aS)-2-fluorotetrahydro-1H-pyrrolizin-7a(5H)-yl)methoxy)pyrido[4,3-d]pyrimidin-7-yl)-5-ethynyl-6-fluoro-naphthalen-2-ol] |
